Measurements published in patent US7988972B2, “Immunoreactive peptides from Epstein-Barr virus” (Ortho-Clinical Diagnostics, Inc., priority 1993, dated 2011).

Legend:
[1] = tested on: EA reactive antibody (IgG) in infectious mononucleosis (IM) sera; assay: ELISA, EA peptides with EBV infectious mononucleosis sera; format: binding, human; details: for ELISA result, peptides with and without extensions: EA positive EBV IM acute serum; for O.D.: 420 nm; for 50.1 ELISA (OD reading): IFA EA <10, OD >0.2 positive
Experimental: ELISA. The ELISA for measuring specific antibodies to p17, p50 or to the synthetic peptides was performed as previously described in detail (Luka et al., J. Immunol. Methods, 67:145-156, 1984). Aliquots of different antigen concentrations were diluted in 0.5M Na2CO3 buffer, pH 9.5, added to wells in polystyrene microtiter plates (Linbro) and the plates incubated overnight at 4° C. Following this incubation period, the plates were washed 5× with Tris-HCl, pH 7.4, containing 0.05% Tween 20, 50 mM NaCl and 100 mg per liter albumin (Sigma) and dried for 20 minutes at room temperature. The plates were screened with different anti-EA-R or EA-D antibody positive human sera and the monoclonal antibody to p17 or p50 to identify the optimal concentration of antigen to be used in the serological studies. Alkaline-phosphatase-labelled goat anti-human IgG (Sigma) or goat anti-mouse IgG (Sigma) was used as the indicator system.
For the testing of human sera for antibodies to native p17, p50 or to the synthetic peptides, sera were diluted 1:10 in ELISA buffer, added in 0.1 ml volumes to wells coated with optimal concentrations of antigen and the plates were incubated for 60 minutes at room temperature. After 4 washes with ELISA buffer, 100 μl of alkaline phosphatase-labelled goat anti-human IgG in ELISA buffer were added to each well and the plates were incubated at room temperature for 1 hour. Following four more washes in buffer, the enzyme reaction was performed by dissolving 1 mg per ml of Sigma alkaline phosphatase substrate in 1M diethanolamine buffer, pH 10.4, containing 1 mM MgCl2 and 0.1 mM ZnCl2, and 100 μl of the mixture was then added to each well. The reaction was allowed to proceed for 30 minutes at 37° C. and then the plates were screened directly with a microplate reader, TITERTEK MULTISKAN MC (Flow), at 420 nm. Readings above 0.1 which was 2× the background noted with antibody-negative sera were considered positive reactions.
When the entire 50.10 peptide was tested with 1M sera, 24/32 or 75% of the sera contained EA-D reactive antibody (IgG) (Table 4).
Serological reactivity of EA peptides p17.1 and p50.1 which contained additional amino acids on their amino and carboxy termini was tested on EBV IM acute sera which was EA positive. The ELISA results shown in Table 5 indicate that the additional amino acids improved reactivity for both EA peptides.
Immunofluorescence assays (IFA) were performed as described by Henle, et al. (Int. J. Cancer, 8:272-282, 1971). Western blot analysis was done by methods commonly used in the art (See for example, Coligan, et al., Current Protocols in Immunology, Wiley Interscience, 1991, Unit 12). Samples of EBV-infected cell lysates (P3HR-1) were tested with human whole antiserum from positive humans (Pearson, et al., Virology, 160:151-161, 1987). A comparison was made between EA serology by IFA, using the EA-D 50.1 peptide antisera, and ELISA serology using 50.1 peptide (see Example 2).

[2] = tested on: antibodies to peptides 50.10 (EA-D) and 17.1 (EA-R) in sequential sera; assay: IgG ELISA on sequential sera of a patient with acute infectious mononucleosis; format: binding, human; details: sera at 1.20 dilution, (+) >0.25
Source text: The early antigen D-R transition was followed in a patient during a course of acute infectious mononucleosis. Antibodies to peptides 50.10 (EA-D) and 17.1 (EA-R) were detected by ELISAs on specimens collected over a six month duration. […] Therefore, the peptides of the invention are useful for monitoring the course of EBV-associated disease in a patient.

[3] = 32 IM sera, values >0.5 positive (O.D. 420 nm)

Sequence: KQKHPKKVKQAFNPL [p50.10, synthetic peptide from 50 Kd early antigen (EA-D) region of EBV]
- % Positive [1, 3]: 75%
- IM sera positive / tested [1, 3]: 24/32
- ELISA result, peptides with and without extensions ([1]; sample no. 2241): 0.673
- ELISA result, peptides with and without extensions ([1]; sample no. 12498): 0.342
- ELISA result, peptides with and without extensions ([1]; sample no. 12836): 0.722
- SCORE ([1]; IM serum sample no. 2241): + (Values >0.5 were considered positive (O.D. readings at 420 nm).)
- SCORE ([1]; IM serum sample no. 11984): + (Values >0.5 were considered positive (O.D. readings at 420 nm).)
- O.D. ([1]; IM serum sample no. 11984): 0.722
- SCORE ([1]; IM serum sample no. 12005): − (Values >0.5 were considered positive (O.D. readings at 420 nm).)
- O.D. ([1]; IM serum sample no. 12005): 0.441
- SCORE ([1]; IM serum sample no. 12288): + (Values >0.5 were considered positive (O.D. readings at 420 nm).)
- O.D. ([1]; IM serum sample no. 12288): 0.610
- SCORE ([1]; IM serum sample no. 12407): + (Values >0.5 were considered positive (O.D. readings at 420 nm).)
- O.D. ([1]; IM serum sample no. 12407): 0.751
- SCORE ([1]; IM serum sample no. 12409): + (Values >0.5 were considered positive (O.D. readings at 420 nm).)
- O.D. ([1]; IM serum sample no. 12409): 0.609
- SCORE ([1]; IM serum sample no. 12418): − (Values >0.5 were considered positive (O.D. readings at 420 nm).)
- O.D. ([1]; IM serum sample no. 12418): 0.382
- SCORE ([1]; IM serum sample no. 12498): − (Values >0.5 were considered positive (O.D. readings at 420 nm).)
- SCORE ([1]; IM serum sample no. 12502): − (Values >0.5 were considered positive (O.D. readings at 420 nm).)
- O.D. ([1]; IM serum sample no. 12502): 0.270
- SCORE ([1]; IM serum sample no. 12587): + (Values >0.5 were considered positive (O.D. readings at 420 nm).)
- O.D. ([1]; IM serum sample no. 12587): 0.890
- SCORE ([1]; IM serum sample no. 12600): − (Values >0.5 were considered positive (O.D. readings at 420 nm).)
- O.D. ([1]; IM serum sample no. 12600): 0.323
- SCORE ([1]; IM serum sample no. 12611): − (Values >0.5 were considered positive (O.D. readings at 420 nm).)
- O.D. ([1]; IM serum sample no. 12611): 0.436
- SCORE ([1]; IM serum sample no. 12801): + (Values >0.5 were considered positive (O.D. readings at 420 nm).)
- O.D. ([1]; IM serum sample no. 12801): 0.605
- SCORE ([1]; IM serum sample no. 12828): + (Values >0.5 were considered positive (O.D. readings at 420 nm).)
- O.D. ([1]; IM serum sample no. 12828): 0.895
- SCORE ([1]; IM serum sample no. 12829): + (Values >0.5 were considered positive (O.D. readings at 420 nm).)
- O.D. ([1]; IM serum sample no. 12829): 0.652
- SCORE ([1]; IM serum sample no. 12836): + (Values >0.5 were considered positive (O.D. readings at 420 nm).)
- SCORE ([1]; IM serum sample no. 12837): + (Values >0.5 were considered positive (O.D. readings at 420 nm).)
- O.D. ([1]; IM serum sample no. 12837): 1.491
- SCORE ([1]; IM serum sample no. 12840): + (Values >0.5 were considered positive (O.D. readings at 420 nm).)
- O.D. ([1]; IM serum sample no. 12840): 0.723
- SCORE ([1]; IM serum sample no. 12888): + (Values >0.5 were considered positive (O.D. readings at 420 nm).)
- O.D. ([1]; IM serum sample no. 12888): 0.847
- SCORE ([1]; IM serum sample no. 12889): + (Values >0.5 were considered positive (O.D. readings at 420 nm).)
- O.D. ([1]; IM serum sample no. 12889): 1.184
- SCORE ([1]; IM serum sample no. 12892): + (Values >0.5 were considered positive (O.D. readings at 420 nm).)
- O.D. ([1]; IM serum sample no. 12892): 0.634
- SCORE ([1]; IM serum sample no. 12893): + (Values >0.5 were considered positive (O.D. readings at 420 nm).)
- O.D. ([1]; IM serum sample no. 12893): 0.626
- SCORE ([1]; IM serum sample no. 12899): + (Values >0.5 were considered positive (O.D. readings at 420 nm).)
- O.D. ([1]; IM serum sample no. 12899): 0.895
- SCORE ([1]; IM serum sample no. 12900): − (Values >0.5 were considered positive (O.D. readings at 420 nm).)
- O.D. ([1]; IM serum sample no. 12900): 0.498
- SCORE ([1]; IM serum sample no. 13075): − (Values >0.5 were considered positive (O.D. readings at 420 nm).)
- O.D. ([1]; IM serum sample no. 13075): 0.252
- SCORE ([1]; IM serum sample no. 13419): + (Values >0.5 were considered positive (O.D. readings at 420 nm).)
- O.D. ([1]; IM serum sample no. 13419): 0.678
- SCORE ([1]; IM serum sample no. 13637): + (Values >0.5 were considered positive (O.D. readings at 420 nm).)
- O.D. ([1]; IM serum sample no. 13637): 0.886
- SCORE ([1]; IM serum sample no. 13769): + (Values >0.5 were considered positive (O.D. readings at 420 nm).)
- O.D. ([1]; IM serum sample no. 13769): 1.307
- SCORE ([1]; IM serum sample no. 13929): + (Values >0.5 were considered positive (O.D. readings at 420 nm).)
- O.D. ([1]; IM serum sample no. 13929): 1.031
- SCORE ([1]; IM serum sample no. 14043): + (Values >0.5 were considered positive (O.D. readings at 420 nm).)
- O.D. ([1]; IM serum sample no. 14043): 0.631
- SCORE ([1]; IM serum sample no. 14128): + (Values >0.5 were considered positive (O.D. readings at 420 nm).)
- O.D. ([1]; IM serum sample no. 14128): 0.693
- SCORE ([1]; IM serum sample no. 14131): + (Values >0.5 were considered positive (O.D. readings at 420 nm).)
- O.D. ([1]; IM serum sample no. 14131): 0.530
- 50.1 ELISA (OD reading) ([1]; acute EBV IM sample 12502, diluted 1:10, EA-D Western blot positive): 0.409
- 50.1 ELISA (OD reading) ([1]; acute EBV IM sample 12840, diluted 1:10, EA-D Western blot positive): 0.257
- 50.1 ELISA (OD reading) ([1]; acute EBV IM sample 13769, diluted 1:10, EA-D Western blot positive): 1.034
- IgG ELISA O.D. reading ([2]; serum no. 9817, May 26, 1988): 0.104
- IgG ELISA O.D. reading ([2]; serum no. 9820, May 31, 1988): 0.094
- IgG ELISA O.D. reading ([2]; serum no. 9829, Jun. 07, 1988): 0.120
- IgG ELISA O.D. reading ([2]; serum no. 9941, Jun. 20, 1988): 0.147
- IgG ELISA O.D. reading ([2]; serum no. 9983, Jun. 27, 1988): 0.817
- IgG ELISA O.D. reading ([2]; serum no. 10064, Jul. 18, 1988): 0.821
- IgG ELISA O.D. reading ([2]; serum no. 10237, Aug. 29, 1988): 0.561
- IgG ELISA O.D. reading ([2]; serum no. 10271, Sep. 20, 1988): 0.100
- IgG ELISA O.D. reading ([2]; serum no. 10488, Oct. 21, 1988): 0.095
- IgG ELISA O.D. reading ([2]; serum no. 10546, Nov. 15, 1988): 0.140
